Assay: physchem
Conditions: octan-1-ol/water, pH 7.4

Compound | logD
CCC[C@@H](CN1CCCC1)N(C)C(=O)Cc1ccc(Cl)c(Cl)c1 | 2.27
CC(C)[C@@H](CN1CCCCC1)N(C)C(=O)Cc1ccc(Cl)c(Cl)c1 | 2.87
COc1ccc(C(CN2CCCC2)N(C)C(=O)Cc2ccc(Cl)c(Cl)c2)c(OC)c1 (stereo not drawn) | 3.07
CCCCCCN1CC[C@]2(C)c3cc(O)ccc3CC1[C@@H]2C | 2.5
CC(O)C(C)OC(=O)[C@@H]1CC2c3cccc4c3c(cn4C(C)C)CC2N(C)C1 (stereo partly drawn) | 2.8
CCOC(=O)C1(c2cccc(O)c2)CCCN(CC2CC2)C1 (stereo not drawn) | 1.89
Cc1ccc(CN2[C@@H]3CC[C@H]2C[C@@H](Oc2cccc(C(N)=O)c2)C3)s1 | 2.39
NC(=O)c1cccc(S[C@H]2C[C@H]3CC[C@@H](C2)N3Cc2ccccc2)c1 | 2.22
NC(=O)c1cc(F)cc(O[C@H]2C[C@H]3CC[C@@H](C2)N3Cc2ccccc2)c1 | 2.14
Cc1cc(O[C@H]2C[C@H]3CC[C@@H](C2)N3Cc2ccccc2)cc(C(N)=O)c1 | 2.08
Cc1cc(C(N)=O)ccc1O[C@H]1C[C@H]2CC[C@@H](C1)N2Cc1ccccc1 | 2.23
CNC(=O)c1cccc(O[C@H]2C[C@H]3CC[C@@H](C2)N3Cc2ccccc2)c1 | 1.93
Oc1cccc(O[C@H]2C[C@H]3CC[C@@H](C2)N3Cc2ccccc2)c1 | 2.3
Cc1ccc(CN2[C@@H]3CC[C@H]2C[C@H](Oc2cccc(C(N)=O)c2)C3)s1 | 2.44
NC(=O)c1cccc(O[C@@H]2C[C@H]3CC[C@@H](C2)N3CCc2ccccc2)c1 | 2
CCN(CC)C(=O)c1ccc(C(=C2CCNCC2)c2ccc(Cl)c(Cl)c2)cc1 | 2.4
Cc1ccnc(NCc2ccc(Cl)cc2)c1 | 3.6
COc1ccccc1Cn1c(C)nc2ccccc21 | 3.47
CC(=O)NC1CC2CCCC(C1)N2C(=O)Nc1ccc(Cl)c(C(F)(F)F)c1 (stereo not drawn) | 2.79
CCN1CCN(C(=O)c2cc3cc(F)ccc3[nH]2)CC1 | 2.28
Nc1ccc2nc(-c3ccc(O)cc3)sc2c1 | 3.1
CC(=O)Nc1ccc(S(=O)(=O)Nc2ccc(Cc3ccncc3)cc2)cc1 | 2.8
CC(CC(=O)NCc1ccccc1)C1CCCO1 (stereo not drawn) | 2.1
Cc1cc(C)n(-c2cccc(Cl)c2C#N)n1 | 3
O=c1cc(O)oc2c1c(=O)n(Cc1ccccc1)c1ccccc21 | 1.97
COc1ccc(-n2cnc3cc(NS(=O)(=O)c4ccccc4)ccc32)cc1 | 3.7

Compound | logD
Nc1ccc(C2(c3ccc(N)cc3)CCCCC2)cc1 | 3.2
CC1(C)CC(=O)c2c(nc3ccccc3c2N)C1 | 3
CCOC(=O)c1c(C)n(Cc2ccco2)c2ccc(O)cc12 | 3.5
CCc1c(C(=O)C(N)=O)c2c(OCC(N)=O)cccc2n1Cc1ccccc1 | 2.1
Nc1ncnc2oc(-c3ccoc3)c(-c3ccco3)c12 | 3.1
Nc1nnc(Cc2ccc(Cl)cc2)s1 | 2.34
Cc1ccc(CN2C(=O)CCSc3ccc(Cl)cc32)cc1 | 3.7
CCCNC(=O)c1nnc2c(-c3cncc(C(=O)N4CCC4)c3)cccc2c1N | 2.79
CC(C)[C@@H]1N=C(c2ccccc2)c2ccccc2NC1=O | 3.05
Cn1c(=O)n(Cc2ccc(Br)cc2)c2ccccc21 | 2.81
Cc1ccc(-c2nnc(O)c3ccccc23)c(C)c1 | 3.41
N#Cc1cccc(-c2ccc(C3(CNC(=O)Nc4cc(Cl)cc(Cl)c4)CCN(CC4CC4)CC3)cc2)c1 | 3.37
CCCNC(=O)c1nnc2c(-c3cnc(OC)nc3OC)cccc2c1N | 3.26
CCCNC(=O)c1nnc2c(-c3cnccc3OC)cccc2c1N | 2.83
Cc1ccc(-c2cc(C(=O)N3CCOCC3)c3cc(C)ccc3n2)cc1 | 3.6
CC(C)C1NCCc2c1sc1ccccc21 (stereo not drawn) | 2.8
O=C1O[C@]2(CN3CCC2CC3)CN1c1ccc(Br)s1 | 2
CN(CCO)C(=O)c1ccc([C@H](c2cccc(NC(=O)C3CC3)c2)N2CCN(Cc3ccc(F)cc3)CC2)cc1 | 3.38
O=C(Nc1cccc([C@@H](c2ccc(C(=O)N3CCC3)cc2)N2CCN(Cc3ccc(F)cc3)CC2)c1)C1CC1 | 3.58
CCN(C)C(=O)c1ccc([C@H](c2cccc(NC(=O)C3CCC3)c2)N2CCN(Cc3cccnc3)CC2)cc1 | 3.27
CCN(CC)C(=O)c1ccc([C@H](c2cccc(NC(=O)C3CC3)c2)N2CCN(CCOC)CC2)cc1 | 2.35
CCOC(=O)Nc1cccc([C@@H](c2ccc(C(=O)N(C)CC)cc2)N2CCN(Cc3nc[nH]c3C)CC2)c1 | 2.32
CCOC(=O)Nc1cccc([C@@H](c2ccc(C(=O)N(C)CC)cc2)N2CCN(Cc3c[nH]c(C)n3)CC2)c1 | 2.11
CCOC(=O)Nc1cccc([C@@H](c2ccc(C(=O)N3CCC3)cc2)N2CCN(Cc3cccnc3)CC2)c1 | 3.02
CNC(=O)c1ccc(Oc2ccc(C#C[C@]3(O)CN4CCC3CC4)cc2)cc1 | 1.99
CCN(C)C(=O)c1ccc(C(=C2CCN(Cc3ccc(F)cc3)CC2)c2ccccc2NC(C)=O)cc1 | 2.79

Compound | logD
O=C(c1ccc(C(=C2CCN(Cc3cscn3)CC2)c2cccc3cccnc23)cc1)N1CCCC1 | 2.75
CN(C)C(=O)c1ccc(C(=C2CCN(Cc3cscn3)CC2)c2cccc3cccnc23)cc1 | 2.3
O=C(c1ccc(C(=C2CCN(Cc3cscn3)CC2)c2cccc3cccnc23)cc1)N1CCOCC1 | 2.12
CN1CCN(C(=O)c2ccc(C(=C3CCN(Cc4cscn4)CC3)c3cccc4cccnc34)cc2)CC1 | 1.98
O=C(c1ccc(C(=C2CCN(Cc3cscn3)CC2)c2cccc3cccnc23)cc1)N1CCC(O)CC1 | 1.89
O=C(N[C@H]1CN2CCC1CC2)c1ccc(-c2ccccc2)s1 | 1.9
C[C@@H]1CN(C(=O)OC(C)(C)C)CCN1c1ncc(OCc2ccc(S(C)(=O)=O)cc2)cn1 | 3.6
CC(C)(C)OC(=O)N1CCN(c2ncc(OCc3ccncc3C#N)cn2)CC1 | 2.81
Nc1nc(Nc2ccc3nc(-c4ccc(F)cc4)cc(N)c3c2)cc(-c2cccc(Cl)c2)n1 | 2.5
CN1Cc2ccccc2C(c2ccc(Cl)cc2)C1 (stereo not drawn) | 3.64
CN1CC=CCC(c2ccc(Cl)c(Cl)c2)C1 (stereo not drawn) | 3.32
Clc1ccc(C2CC=CCNC2)cc1Cl (stereo not drawn) | 1.86
Clc1ccc([C@H]2CC=CCNC2)cc1Cl | 1.95
CCOc1ccc(-n2c(CC)nc3ccccc3c2=O)cc1 | 3.27
COC(=O)N1CCN(C(=O)Cc2ccc(Cl)c(Cl)c2)[C@H](CN2CCCC2)C1 | 2.05
Oc1cc(Cl)cc(Cl)c1 | 3.58
CN(C(=O)Cc1ccc(Cl)c(Cl)c1)C(CN1CCCC1)c1ccccc1 (stereo not drawn) | 3.38
CN1CCC(C#N)(c2cccc3ccccc23)CC1 | 2.73
O=C1CC(c2ccc(O)cc2)Oc2cc(O)cc(O)c21 (stereo not drawn) | 2.6
COc1cc(C(=O)N2CC[C@](CCN3CCC(C(N)=O)(c4ccccc4)CC3)(c3ccc(Cl)c(Cl)c3)C2)cc(OC)c1OC | 3.23
CNC1=Nc2ncccc2C(c2ccns2)=NC1c1cccs1 (stereo not drawn) | 2.15
CNC1=Nc2ncccc2C(c2ccco2)=NC1c1cccs1 (stereo not drawn) | 1.85
CNC(=O)c1ccc(Nc2nccc(-c3cnc(C4CC4)n3C(C)C)n2)cc1 | 2.77
Cc1cc(=O)[nH]c2sc(C(=O)c3ccc(Br)cc3)c(N)c12 | 2.57
COC(=O)N1CCN(C(=O)Cc2ccc(Cl)c(Cl)c2)[C@@H](CN2CCCC2)C1 | 1.97
CN(C)CC/C=C1\c2ccccc2Sc2ccc(Cl)cc21 | 3.42

Source: ChEMBL document CHEMBL3301361, “Experimental in vitro DMPK and physicochemical data on a set of publicly disclosed compounds”
